Earlier results on 16 compounds are cited in patent US5849729A, “Use of hydrolyzed cocoa butter for percutaneous absorption” (Hershey Foods Corporation, priority 1995, dated 1998).

For the data set the following is noted: cited from earlier work.
The mark [1] stands for this setting: in vivo, topical or ocular, 120 h.

Like-named read-outs stand apart in the source and are kept apart here.

As for `CC(=O)[C@H]1CC[C@H]2[C@@H]3CCC4=CC(=O)CC[C@]4(C)[C@H]3CC[C@]12C` [Progesterone], the “Total Absorption (T of above)” value under setting [1] is 10.81 % of the dose. In addition, under “in vivo”, the “Absorption Rate 0-12” value is listed as “.208 % hr”, the “Absorption Rate 12-24” value was “.264 % hr”, the “Absorption Rate 24-48” value is on record as “.135 % hr” and the “Absorption Rate 48-72” value is reported as “.045 % hr”. For the same compound, under “in vivo”, the “Absorption Rate 72-96” value is “.024 % hr” and the “Absorption Rate 96-120” value is given as “.011 % hr”.
As for `C[C@]12CC[C@@H]3c4ccc(O)cc4CC[C@H]3[C@@H]1CC[C@@H]2O` [Estradiol], under setting [1], the “Total Absorption (T of above)” value is 10.62 % of the dose. For the setting “in vivo”, the “Absorption Rate 0-12” value is on record as “.008 % hr”, the “Absorption Rate 12-24” value was “.056 % hr”, the “Absorption Rate 24-48” value was “.099 % hr” and the “Absorption Rate 48-72” value was “.101 % hr”. For the same compound, under “in vivo”, the “Absorption Rate 72-96” value is “.107 % hr” and the “Absorption Rate 96-120” value was “.103 % hr”.
Consider `C[C@]12CC[C@H]3[C@@H](CCC4=CC(=O)CC[C@@]43C)[C@@H]1CC[C@@H]2C(=O)CO` [Desoxycorticosterone], for which the “Total Absorption (T of above)” value under setting [1] is listed as 12.55 % of the dose. Moreover, for the setting “topical, 0-12 hrs”, the “Absorption Rate 0-12” value is recorded as “.197 % hr”. Besides, the “Absorption Rate 12-24” value (topical, 12-24 hrs) is reported as “.313 % hr”. In addition, for the setting “topical, 24-48 hrs”, the “Absorption Rate 24-48” value is on record as “.143 % hr”. For the same compound, under “topical, 48-72 hrs”, the “Absorption Rate 48-72” value is “.069 % hr”. In addition, the “Absorption Rate 72-96” value (topical, 72-96 hrs) is “.035 % hr”. For the same compound, the “Absorption Rate 96-120” value (topical, 96-120 hrs) is “.020 % hr”.
For the compound `C[C@]12C[C@H](O)[C@H]3[C@@H](CCC4=CC(=O)CC[C@@]43C)[C@@H]1CC[C@@H]2C(=O)CO` [Corticosterone], under “topical, 0-12 hrs”, the “Absorption Rate 0-12” value was “.013 % hr”. In addition, the “Total Absorption (T of above)” value (topical, 0-120 hrs) was 8.78 % of the dose. Besides, where the note is “topical, 12-24 hrs”, the “Absorption Rate 12-24” value is “.065 % hr”. In addition, the “Absorption Rate 24-48” value (topical, 24-48 hrs) is “.139 % hr”. Under “topical, 48-72 hrs”, the “Absorption Rate 48-72” value is “.070 % hr”. For the same compound, the “Absorption Rate 72-96” value (topical, 72-96 hrs) is reported as “.050 % hr”. Besides, the “Absorption Rate 96-120” value (topical, 96-120 hrs) is recorded as “.039 % hr”.
Turning to `CC(=O)O[C@H]1CC[C@H]2[C@@H]3CCC4=CC(=O)CC[C@]4(C)[C@H]3CC[C@]12C` [Testosterone Acetate], the “Absorption Rate 0-12” value (topical, 0-12 hrs) is listed as “.103 % hr”. Besides, for the setting “topical, 0-120 hrs”, the “Total Absorption (T of above)” value was 4.62 % of the dose. For the same compound, the “Absorption Rate 12-24” value (topical, 12-24 hrs) is “.133 % hr”. For the same compound, under “topical, 24-48 hrs”, the “Absorption Rate 24-48” value was “.048 % hr”. Under “topical, 48-72 hrs”, the “Absorption Rate 48-72” value is on record as “.015 % hr”. Also, the “Absorption Rate 72-96” value (topical, 72-96 hrs) is listed as “.007 % hr”. The “Absorption Rate 96-120” value (topical, 96-120 hrs) is “.004 % hr”.
For `CC(=O)OCC(=O)[C@@]1(O)CC[C@H]2[C@@H]3CCC4=CC(=O)CC[C@]4(C)[C@H]3[C@@H](O)C[C@@]21C` [Hydrocortisone Acetate], the “Total Absorption (T of above)” value under setting [1] is listed as 2.55 % of the dose. In addition, for the setting “in vivo, topical or ocular”, the “absorption through the skin of closely related corticosteroid compounds” value (“absorption through the skin” below) is given as 1-3 % of the dose. Further, under “in vivo”, the “Absorption Rate 0-12” value is “.020 % hr”, the “Absorption Rate 12-24” value is “.089 % hr”, the “Absorption Rate 24-48” value is reported as “.032 % hr” and the “Absorption Rate 48-72” value is reported as “.024 % hr”. Where the note is “in vivo”, the “Absorption Rate 72-96” value is on record as “.015 % hr” and the “Absorption Rate 96-120” value was “.008 % hr”.
`C[C@]12CCC(=O)C=C1CC[C@@H]1[C@@H]2C(=O)C[C@@]2(C)[C@H]1CC[C@]2(O)C(=O)CO` [Cortisone]: the “absorption through the skin” value (published literature, topical) is 1-3 % of the dose. For the same compound, the “Absorption Rate 0-12” value (topical, 0-12 hrs) was “.015 % hr”. Moreover, for the setting “topical, 0-120 hrs”, the “Total Absorption (T of above)” value was 3.38 % of the dose. Besides, the “Absorption Rate 12-24” value (topical, 12-24 hrs) was “.037 % hr”. Besides, the “Absorption Rate 24-48” value (topical, 24-48 hrs) is reported as “.039 % hr”. The “Absorption Rate 48-72” value (topical, 48-72 hrs) was “.036 % hr”. Besides, the “Absorption Rate 72-96” value (topical, 72-96 hrs) is given as “.032 % hr”. Under “topical, 96-120 hrs”, the “Absorption Rate 96-120” value was “.024 % hr”.
In the case of `CC(=O)[C@@]1(O)CC[C@H]2[C@@H]3CCC4=CC(=O)CC[C@]4(C)[C@H]3CC[C@@]21C` [17-OII Progesterone], the “Total Absorption (T of above)” value (topical, 0-120 hrs) is reported as 14.76 % of the dose.
As for `CCC(=O)O[C@H]1CC[C@H]2[C@@H]3CCC4=CC(=O)CC[C@]4(C)[C@H]3CC[C@]12C` [Testosterone Propionate], the “Absorption Rate 0-12” value (topical, 0-12 hrs) is on record as “.061 % hr”. The “Total Absorption (T of above)” value (topical, 0-120 hrs) is 3.44 % of the dose. Further, the “Absorption Rate 12-24” value (topical, 12-24 hrs) was “.096 % hr”. Where the note is “topical, 24-48 hrs”, the “Absorption Rate 24-48” value is “.035 % hr”. The “Absorption Rate 48-72” value (topical, 48-72 hrs) is on record as “.015 % hr”. The “Absorption Rate 72-96” value (topical, 72-96 hrs) was “.009 % hr”. Further, the “Absorption Rate 96-120” value (topical, 96-120 hrs) is reported as “.005 % hr”.
For the compound `C[C@]12CC[C@H]3[C@@H](CCC4=CC(=O)CC[C@@]43C)[C@@H]1CC[C@@H]2O` [Testosterone], the “Absorption Rate 0-12” value (topical, 0-12 hrs) is recorded as “.147 % hr”. For the same compound, where the note is “topical, 0-120 hrs”, the “Total Absorption (T of above)” value is given as 13.24 % of the dose. In addition, the “Absorption Rate 12-24” value (topical, 12-24 hrs) is “.364 % hr”. Besides, the “Absorption Rate 24-48” value (topical, 24-48 hrs) is “.156 % hr”. Under “topical, 48-72 hrs”, the “Absorption Rate 48-72” value is “.066 % hr”. In addition, where the note is “topical, 72-96 hrs”, the “Absorption Rate 72-96” value is reported as “.036 % hr”. For the same compound, the “Absorption Rate 96-120” value (topical, 96-120 hrs) is recorded as “.018 % hr”.
Turning to `C[C@]12CCC(=O)C=C1CC[C@@H]1[C@@H]2CC[C@]2(C)C(=O)CC[C@@H]12` [Androstenedione], for the setting “topical, 0-12 hrs”, the “Absorption Rate 0-12” value was “.183 % hr”. The “Total Absorption (T of above)” value (topical, 0-120 hrs) is 13.47 % of the dose. Further, the “Absorption Rate 12-24” value (topical, 12-24 hrs) is on record as “.334 % hr”. Further, the “Absorption Rate 24-48” value (topical, 24-48 hrs) is recorded as “.155 % hr”. Moreover, the “Absorption Rate 48-72” value (topical, 48-72 hrs) was “.076 % hr”. In addition, the “Absorption Rate 72-96” value (topical, 72-96 hrs) is listed as “.043 % hr”. For the same compound, for the setting “topical, 96-120 hrs”, the “Absorption Rate 96-120” value is “.028 % hr”.
Take `C[C@]12CCC(=O)C=C1CC[C@@H]1[C@@H]2[C@@H](O)C[C@@]2(C)[C@H]1CC[C@]2(O)C(=O)CO` [Hydrocortisone]: the “Total Absorption (T of above)” value under setting [1] was 1.87 % of the dose. In addition, the “absorption through the skin” value (in vivo, topical or ocular) was 1-3 % of the dose. Also, where the note is “in vivo”, the “Absorption Rate 0-12” value is given as “.005 % hr”, the “Absorption Rate 12-24” value is on record as “.023 % hr”, the “Absorption Rate 24-48” value is listed as “.019 % hr” and the “Absorption Rate 48-72” value was “.018 % hr”. For the same compound, under “in vivo”, the “Absorption Rate 72-96” value is listed as “.016 % hr” and the “Absorption Rate 96-120” value is given as “.010 % hr”.
Take `C[C@]12CC[C@H](O)CC1=CC[C@@H]1[C@@H]2CC[C@]2(C)C(=O)CC[C@@H]12` [Dehydroepiandrosterone]: the “Absorption Rate 0-12” value (topical, 0-12 hrs) is “.265 % hr”. Besides, the “Total Absorption (T of above)” value (topical, 0-120 hrs) is listed as 18.45 % of the dose. Besides, under “topical, 12-24 hrs”, the “Absorption Rate 12-24” value is “.446 % hr”. For the same compound, the “Absorption Rate 24-48” value (topical, 24-48 hrs) was “.249 % hr”. In addition, the “Absorption Rate 48-72” value (topical, 48-72 hrs) is on record as “.091 % hr”. Moreover, the “Absorption Rate 72-96” value (topical, 72-96 hrs) is “.046 % hr”. Also, under “topical, 96-120 hrs”, the “Absorption Rate 96-120” value is given as “.028 % hr”.
As to `C[C@]12CCC(=O)C=C1CC[C@@H]1[C@@H]2CC[C@@]2(C)[C@H]1CC[C@]2(O)C(=O)CO` [17-OII DOC], under “in vivo”, the “Absorption Rate 0-12” value is “.041 % hr”, the “Absorption Rate 12-24” value is reported as “.101 % hr”, the “Absorption Rate 24-48” value is reported as “.084 % hr” and the “Absorption Rate 48-72” value is “.076 % hr”. Besides, where the note is “in vivo”, the “Absorption Rate 72-96” value is “.062 % hr” and the “Absorption Rate 96-120” value was “.065 % hr”. Also, the “Total Absorption (T of above)” value (topical, 0-120 hrs) is reported as 8.41 % of the dose.
With `CC1(C)O[C@@H]2C[C@H]3[C@@H]4C[C@H](F)C5=CC(=O)C=C[C@]5(C)[C@@]4(F)[C@@H](O)C[C@]3(C)[C@]2(C(=O)CO)O1` [Flucinoione Acetonide, fluocinolone acetonide], where the note is “in vivo”, the “Absorption Rate 0-12” value is “.002 % hr”, the “Absorption Rate 12-24” value is “.011 % hr”, the “Absorption Rate 24-48” value is “.012 % hr” and the “Absorption Rate 48-72” value was “.016 % hr”. Besides, where the note is “in vivo”, the “Absorption Rate 72-96” value is given as “.008 % hr” and the “Absorption Rate 96-120” value is “.005 % hr”. Moreover, under “published literature, topical”, the “absorption through the skin” value is recorded as 1-3 % of the dose. Moreover, under “topical, 0-120 hrs”, the “Total Absorption (T of above)” value is reported as 1.34 % of the dose.
For the compound `C[C@@H]1C[C@H]2[C@@H]3CCC4=CC(=O)C=C[C@]4(C)[C@@]3(F)[C@@H](O)C[C@]2(C)[C@@]1(O)C(=O)CO` [Dexamethasone], the “Absorption Rate 0-12” value (topical, 0-12 hrs) was “.005 % hr”. Further, the “Total Absorption (T of above)” value (topical, 0-120 hrs) is listed as “.40 % of the dose”. Moreover, the “Absorption Rate 12-24” value (topical, 12-24 hrs) is reported as “.003 % hr”. In addition, the “Absorption Rate 24-48” value (topical, 24-48 hrs) was “.004 % hr”. For the same compound, the “Absorption Rate 48-72” value (topical, 48-72 hrs) is recorded as “.003 % hr”. For the same compound, where the note is “topical, 72-96 hrs”, the “Absorption Rate 72-96” value is reported as “.002 % hr”. For the same compound, for the setting “topical, 96-120 hrs”, the “Absorption Rate 96-120” value is on record as “.002 % hr”.
